Values after ≈ are worked out from the molar mass of the structure shown. Read-outs that look alike come from different tables or passages of the source.
Experiments:
[1] = system: G. lamblia GS trophozoites; assay: Trophozoite growth inhibition, ATP content (ATPlite) assay; type: cell-based, Giardia lamblia; conditions: Giardia duodenalis, 72 h, read-out: Mean [IC50 ± SE(IC50)] G. lamblia GS
Method: (§1) Antigiardia assays followed by enzyme inhibition determination facilitated the selection of compounds for permeation and stability studies by in vitro methods, prior to advancing to in vivo studies. Compound potency was evaluated first by measuring G. lamblia trophozoite growth as a function of the compound concentration and calculating the IC50 values. Potency in Entamoeba histolytica trophozoites was also determined because of the early report that fumagillin cured amebiasis ([19]). The intent was to test whether the compounds would be suitable to treat gastrointestinal amebiasis rather than the invasive form of the disease, given that the designed strategy was based on reducing compound permeation across the epithelial cell barrier. […] Trophozoite growth was determined by monitoring the ATP cell content using a high-throughput homogeneous assay developed previously for G. lamblia ([57]). The ATP content serves as a marker of cell integrity since ATP degrades rapidly when cells die and the luminescence signal generated by luciferase requires ATP. The same assay was also adopted in 96-well plates for E. histolytica trophozoite growth measurement, as described in Materials and Methods. A similar E. histolytica trophozoite ATP content assay was described previously ([58]). Fumagillin, TNP-470, and a standard-of-care drug (metronidazole) served as positive controls, and cells without the drug (in the presence of 0.5% dimethyl sulfoxide [DMSO]) served as the negative control.
(§2) Trophozoites of G. lamblia isolates WB and GS were grown anaerobically in borosilicate glass screw-cap culture tubes (Fisher Scientific) at pH 7.0 in Keister’s modified TYI-S-33 medium (ATCC). The medium was supplemented with 10% heat-inactivated bovine serum (Sigma-Aldrich) and 0.05% bovine bile (Sigma-Aldrich). To attain low-oxygen-tension conditions, the tubes were filled to 85% to 90% of their total volume capacity and incubated without shaking at 37°C. Subcultures (2 × 10^5 trophozoites per tube) were made three times a week. Detachment of trophozoites for inoculation was achieved by chilling the cultures on ice for 20 min. Culturing and detachment of metronidazole-resistant G. lamblia assemblage A 713M3 and assemblage B 1279-M1 trophozoites followed the same protocol, except that the growth medium was supplemented with metronidazole, with the concentration gradually being increased to 10 μM.
(§3) The growth inhibition assays were performed in duplicate, once for each compound, for all compounds except fumagillin, which served as a positive control and whose inhibitory ability was measured multiple times as new sets of compounds were tested. All dry compounds except for fumagillin were dissolved in dimethyl sulfoxide (DMSO; Sigma) at a stock concentration of 10 mM and then diluted 1:100 in growth medium to a final compound concentration of 100 μM; fumagillin was diluted to 20 μM. Compound solution aliquots (100 μl) were prepared by 3-fold serial dilutions in growth medium containing 0.5% DMSO and distributed into 96-well assay plates. This was followed by the addition of 10 μl G. lamblia or E. histolytica culture containing 10,000 trophozoites. Fumagillin served as a positive control, and the medium-diluted DMSO alone served as a negative control. The assay plates were placed in a BD GasPak EZ container system (BD Diagnostics) to create an anaerobic growth environment. The sealed containers were incubated at 37°C for 72 h. Following incubation, 70 μl/well of the ATPlite reagent (PerkinElmer) was added to the assay plates for one-step lysis and ATP level detection. The luminescent signals of the assay plates were measured on an EnSpire 2300 plate reader (PerkinElmer). Concentration-response titration points for each compound were fitted to a 4-parameter logistic nonlinear regression model using the KaleidaGraph tool, yielding the IC50 value and standard error (SE).

[2] = system: G. lamblia WB trophozoites; assay: as above; type: cell-based; conditions: Giardia duodenalis, 72 h, read-out: Mean [IC50 ± SE(IC50)] G. lamblia WB
Method: as §1, §2, §3

[3] = system: E. histolytica HM1:IMSS trophozoites; assay: as above; type: cell-based; conditions: Entamoeba histolytica, 72 h, read-out: Mean [IC50 ± SE(IC50)] E. histolytica HM1: IMSS
Method: as §1
E. histolytica strain HM1:IMSS trophozoites were grown at 37°C in TYI-S-33 medium supplemented with penicillin (100 U/ml) and streptomycin sulfate (100 μg/ml) ([65]). Trophozoites were grown anaerobically in borosilicate tubes or T25 flasks, and subcultures were made 1 to 2 times a week. Trophozoites were detached for inoculation by chilling the cultures on ice for 20 min.
as §3, with “The sealed containers were incubated at 37°C for 72 h.” left out

[4] = system: G. lamblia WB trophozoites; assay: Trophozoite viability MLC determination; type: cell-based, Giardia lamblia; conditions: 3 days treatment, 3 days proliferation without drug
Method: (§4) The inhibition of metabolism enables the organism to resume proliferation once treatment is completed. To discriminate between the lethality of the promising compounds and the induction of metabolic inactivity by the promising compounds, the minimum lethal concentration (MLC) values were determined by treating the trophozoites with the test compounds for 3 days and transferring the resulting cultures to medium lacking the compounds for 3 days of proliferation. This assay was described previously for G. lamblia ([18]) and was adapted to E. histolytica in the current study.
as §2
(§5) Compounds were prepared by 2-fold serial dilutions in growth medium containing 0.5% DMSO (diluted from a starting concentration of 1 μM to 12 concentrations for all compounds except metronidazole, fumagillol, and TNP-470, which were diluted from 100 μM), and 100 μl/well was transferred in duplicate to the 96-well culture plate. Ten microliters of G. lamblia trophozoites was plated at a density of 10,000 cells/well. The plates were incubated under anaerobic condition in a BD GasPak EZ container system (BD Diagnostics) at 37°C for 72 h and surveyed visually under a microscope to check trophozoite survival, mobility, and attachment. […] The tubes were incubated under anaerobic condition for 3 days at 37°C and checked under a microscope. The MLC value was the concentration in the tube with the lowest compound concentration without any live organism.

[5] = system: metronidazole-resistant G. lamblia 1279-M1; assay: Trophozoite viability MLC determination; type: cell-based, Giardia lamblia; conditions: metronidazole-resistant strain; 3 days treatment, 3 days proliferation
Method: as §4, §2, §5

[6] = system: metronidazole-resistant G. lamblia 713M3; assay: Trophozoite viability MLC determination; type: cell-based, Giardia lamblia; conditions: metronidazole-resistant strain; 3 days treatment, 3 days proliferation
Method: as §4, §2, §5

[7] = trophozoite growth, ATP content

SMILES	IC50 [1, 7]	IC50 [2, 7]	IC50 [3, 7]	MLC G. lamblia WB [4]	MLC G. lamblia 1279-M1 [5]	MLC G. lamblia 713M3 [6]	IC50 [3]	IC50 [1]	IC50 [2]
COC1C(OC(=O)NC(=O)CN2CCOCC2)CCC2(CO2)C1C1(C)OC1CC=C(C)C (stereo not shown) [Compound 3]	1.5 ± 0.1 nM	1.6 ± 0.1 nM	4 ± 0.1 nM	0.98 nM (≈ 0.443 ng/mL)	0.98 nM (≈ 0.443 ng/mL)	3.9 nM (≈ 1.76 ng/mL)	–	–	–
COC1C(OC(=O)NC(=O)CN2CCC(O)CC2)CCC2(CO2)C1C1(C)OC1CC=C(C)C (stereo not shown) [Compound 4]	4.6 ± 0.4 nM	6.8 ± 0.3 nM	36 ± 4.2 nM	3.9 nM (≈ 1.82 ng/mL)	7.8 nM (≈ 3.64 ng/mL)	3.9 nM (≈ 1.82 ng/mL)	–	–	–
CO[C@@H]1[C@H](OC(=O)Nc2ccc(C(=O)O)cc2)CC[C@]2(CO2)[C@H]1[C@@]1(C)O[C@@H]1CC=C(C)C [Compound 9, 4-(((((3R,4S,5S,6R)-5-methoxy-4-((2R,3R)-2-methyl-3-(3-methylbut-2-en-1-yl)oxiran-2-yl)-1-oxaspiro[2.5]octan-6-yl)oxy)carbonyl)amino)benzoic acid]	3.8 ± 0.6 nM	6.3 ± 0.7 nM	–	3.9 nM (≈ 1.74 ng/mL)	7.8 nM (≈ 3.47 ng/mL)	7.8 nM (≈ 3.47 ng/mL)	6.7 ± 0.5 nM	–	–
CCOC(=O)Cc1ccc(NC(=O)OC2CCC3(CO3)C(C3(C)OC3CC=C(C)C)C2OC)cc1 (stereo not shown) [Compound 11]	3.1 ± 0.5 nM	7.4 ± 1.3 nM	43 ± 3.4 nM	98 nM (≈ 47.8 ng/mL)	–	–	–	–	–
COC1C(OC(=O)N2CCC(O)CC2)CCC2(CO2)C1C1(C)OC1CC=C(C)C (stereo not shown) [Compound 16]	1.2 ± 0.04 nM	2.6 ± 0.2 nM	2.9 ± 0.2 nM	1.95 nM (≈ 0.799 ng/mL)	7.8 nM (≈ 3.19 ng/mL)	1.95 nM (≈ 0.799 ng/mL)	–	–	–
CO[C@@H]1[C@H](OC(=O)/C=C/C=C/C=C/C=C/C(=O)O)CC[C@]2(CO2)[C@H]1[C@@]1(C)O[C@@H]1CC=C(C)C [Fumagillin, reference compound]	–	–	–	125 nM (≈ 57.3 ng/mL)	125 nM (≈ 57.3 ng/mL)	250 nM (≈ 115 ng/mL)	47.9 ± 4.8 nM	9 ± 2.2 nM	9.5 ± 2.2 nM
Cc1ncc([N+](=O)[O-])n1CCO [Metronidazole, reference compound]	12700 ± 1340 nM	5570 ± 877 nM	318 ± 16 nM	7,700 nM	100,000 nM	100,000 nM	–	–	–

Source: paper PMC7508583, “Discovery and Preclinical Development of Antigiardiasis Fumagillol Derivatives” (Antimicrobial Agents and Chemotherapy, 2020)
